In PubChem BioAssay (NCI):
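Values below derive from 48-hour exposures of cells grown in 96-well plates, with endpoints linearly interpolated between the two concentrations bracketing the appropriate inhibition level. Here, GI50 denotes the concentration required for 50% inhibition of growth. TGI is the concentration that stops growth completely.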

What was measured:
Test in all cases: DTP human tumour cell line panel, 48 h
[1] = tested on: DU-145 prostate
[2] = tested on: OVCAR-8 ovarian
[3] = tested on: SNB-19 CNS
[4] = tested on: MDA-MB-231 breast
[5] = tested on: HCT-116 colon
[6] = tested on: NCI-H23 lung
[7] = tested on: A498 renal
[8] = tested on: HCC-2998 colon
[9] = tested on: OVCAR-3 ovarian
[10] = tested on: HS 578T breast
[11] = tested on: OVCAR-4 ovarian
[12] = tested on: SN12C renal
[13] = tested on: RXF 393 renal
[14] = tested on: ACHN renal
[15] = tested on: SR leukemia
[16] = tested on: SK-MEL-2 melanoma
[17] = tested on: NCI-H522 lung
[18] = tested on: RPMI-8226 leukemia
[19] = tested on: 786-0 renal
[20] = tested on: NCI/ADR-RES ovarian
[21] = tested on: KM12 colon
[22] = tested on: K-562 leukemia
[23] = tested on: CAKI-1 renal
[24] = tested on: T-47D breast
[25] = tested on: SW-620 colon
[26] = tested on: A549 NSCLC
[27] = tested on: OVCAR-5 ovarian
[28] = tested on: UACC-62 melanoma
[29] = tested on: MDA-MB-468 breast
[30] = tested on: CCRF-CEM leukemia
[31] = tested on: M14 melanoma
[32] = tested on: HL-60(TB) leukemia
[33] = tested on: EKVX NSCLC
[34] = tested on: MOLT-4 leukemia
[35] = tested on: U251 CNS
[36] = tested on: SK-MEL-5 melanoma
[37] = tested on: HT29 colon
[38] = tested on: LOX IMVI melanoma
[39] = tested on: IGROV1 ovarian
[40] = tested on: SNB-75 CNS
[41] = tested on: HOP-92 NSCLC
[42] = tested on: SK-MEL-28 melanoma
[43] = tested on: BT-549 breast
[44] = tested on: UO-31 renal
[45] = tested on: TK-10 renal
[46] = tested on: MCF7 breast
[47] = tested on: SK-OV-3 ovarian
[48] = tested on: NCI-H460 lung
[49] = tested on: UACC-257 melanoma
[50] = tested on: SF-539 CNS
[51] = tested on: COLO 205 colon
[52] = tested on: MDA-MB-435
[53] = tested on: PC-3 prostate
[54] = tested on: MALME-3M melanoma
[55] = tested on: SF-295 CNS
[56] = tested on: NCI-H226 lung
[57] = tested on: SF-268 CNS
[58] = tested on: HCT-15 colon
[59] = tested on: HOP-62 NSCLC

`COc1ccc(-c2nc(S(=O)(=O)c3ccc(C)cc3)c(S(=O)(=O)CC(=O)N(C)Cc3ccccc3)o2)cc1` gave a GI50 [1] of 10.2 µM, a TGI [1] of 21.8 µM and a GI50 [2] of 13.3 µM. For the same compound, the TGI [2] was 28.9 µM, the GI50 [3] was 14.4 µM and the TGI [3] was 27.5 µM. It also gave a GI50 [4] of 9.27 µM, a TGI [4] of 21.6 µM and a GI50 [5] of 5.02 µM. For the same compound, the TGI [5] was 19.6 µM, the GI50 [6] was 12.5 µM and the TGI [6] was 25.7 µM. For the same compound, the GI50 [7] was 13.5 µM, the TGI [7] was 26.8 µM and the GI50 [8] was 13.3 µM. It also gave a TGI [8] of 26.1 µM, a GI50 [9] of 4.25 µM and a TGI [9] of 16.2 µM. For the same compound, the GI50 [10] was 4.85 µM, the TGI [10] was 33.5 µM and the GI50 [11] was 14.2 µM. The TGI [11] was 36.7 µM, the GI50 [12] was 10.5 µM and the TGI [12] was 22.3 µM. The GI50 [13] was 5.05 µM, the TGI [13] was 16.9 µM and the GI50 [14] was 10.8 µM. For the same compound, the TGI [14] was 22.7 µM, the GI50 [15] was 3.27 µM and the TGI [15] was over 100 µM. It also gave a GI50 [16] of 13.8 µM, a TGI [16] of 27.4 µM and a GI50 [17] of 2.19 µM. For the same compound, the TGI [17] was 6.94 µM, the GI50 [18] was 4.45 µM and the TGI [18] was over 100 µM. For the same compound, the GI50 [19] was 8.89 µM, the TGI [19] was 23 µM and the GI50 [20] was 15.2 µM. The TGI [20] was 45.2 µM, the GI50 [21] was 15.8 µM and the TGI [21] was 32.3 µM. For the same compound, the GI50 [22] was 4.72 µM, the TGI [22] was over 100 µM and the GI50 [23] was 5.76 µM. It also gave a TGI [23] of 18.6 µM, a GI50 [24] of 6.28 µM and a TGI [24] of 25.2 µM. For the same compound, the GI50 [25] was 4.25 µM, the TGI [25] was 17.5 µM and the GI50 [26] was 14.6 µM. For the same compound, the TGI [26] was 33.6 µM, the GI50 [27] was 12.8 µM and the TGI [27] was 25.5 µM. The GI50 [28] was 11.7 µM, the TGI [28] was 23.9 µM and the GI50 [29] was 2.41 µM. For the same compound, the TGI [29] was 8 µM, the GI50 [30] was 3.5 µM and the TGI [30] was over 100 µM. The GI50 [31] was 12.4 µM, the TGI [31] was 30.8 µM and the GI50 [32] was 16.3 µM. It also gave a TGI [32] of over 100 µM, a GI50 [33] of 11.7 µM and a TGI [33] of 25.2 µM. It also gave a GI50 [34] of 4.73 µM, a TGI [34] of over 100 µM and a GI50 [35] of 15.4 µM. For the same compound, the TGI [35] was 29.1 µM, the GI50 [36] was 14.3 µM and the TGI [36] was 27.7 µM. For the same compound, the GI50 [37] was 9.39 µM, the TGI [37] was 30.5 µM and the GI50 [38] was 2.79 µM. It also gave a TGI [38] of 10.2 µM, a GI50 [39] of 11.1 µM and a TGI [39] of 23.5 µM. The GI50 [40] was 4.82 µM, the TGI [40] was 18.7 µM and the GI50 [41] was 14 µM. For the same compound, the TGI [41] was 39.2 µM, the GI50 [42] was 14.3 µM and the TGI [42] was 27.3 µM. It also gave a GI50 [43] of 12.3 µM, a TGI [43] of 26 µM and a GI50 [44] of 10.3 µM. The TGI [44] was 22 µM, the GI50 [45] was 13.2 µM and the TGI [45] was 26.5 µM. It also gave a GI50 [46] of 3.89 µM, a TGI [46] of 16.8 µM and a GI50 [47] of 30.5 µM. The TGI [47] was over 100 µM, the GI50 [48] was 8.2 µM and the TGI [48] was 23.3 µM. The GI50 [49] was 13.1 µM, the TGI [49] was 26.3 µM and the GI50 [50] was 10.7 µM. For the same compound, the TGI [50] was 22.5 µM, the GI50 [51] was 12.2 µM and the TGI [51] was 41.7 µM. It also gave a GI50 [52] of 7.32 µM, a TGI [52] of 31.1 µM and a GI50 [53] of 12.1 µM. It also gave a TGI [53] of 44.9 µM, a GI50 [54] of 14.8 µM and a TGI [54] of 29.6 µM. The GI50 [55] was 12.7 µM, the TGI [55] was 25.5 µM and the GI50 [56] was 14.8 µM. It also gave a TGI [56] of 39.6 µM, a GI50 [57] of 12.1 µM and a TGI [57] of 29.7 µM. The GI50 [58] was 6.17 µM, the TGI [58] was 20.8 µM and the GI50 [59] was 16 µM. For the same compound, the TGI [59] was 32.5 µM.
